Tests used:
[1] = tested on: HCV polyprotein processing; experiment: Kinetic studies following polyprotein processing intermediates; format: cell-based
[2] = Example 1: Phase 1 rising-single-dose pharmacokinetic study in healthy adult subjects; format: in vivo, human; settings: for DN AUC(I): dose-normalized (to 50 mg); for Tmax: median
Procedure: A Phase 1, randomized, third-party-blind (within dose level), placebo-controlled, rising-single-dose study of compounds of Formulae I-XXVI was conducted in healthy adult subjects.
Nine subjects in each group received either compound of Formula Ia (n=6) or placebo (n=3). Those subjects randomized to active compound received one of the following doses of compound of Formula Ia: 50, 100, 200, 400, 600, or 800 mg.
On Day 1, at least 10 hours prior to compound administration, an overnight fast was maintained until 4 hours following treatment administration, after which lunch was served. During the fasting period, no food or fluid (except noncarbonated water) was permitted; furthermore, drinking water was prohibited from 2 hours predose to 2 hours postdose, with the exception of the approximately 240 mL administered with the treatments.
Blood samples (7 mL each) for the determination of compound of Formula Ia concentrations were collected immediately prior to dosing (0 hour), and at 0.25, 0.5, 0.75, 1, 1.5, 2, 3, 4, 5, 6, 8, 10, 12, 18, 24, 36, 48, 72, and 144 hours postdose. The blood samples were collected into tubes containing EDTA. The samples were separated by centrifugation at 4° C. for 15 minutes at 1500 g to obtain the plasma, and the plasma samples frozen at −20° C. until assayed.
Plasma concentrations of compound of Formula Ia were determined using a validated liquid chromatography tandem mass spectrometry (LC-MS/MS) method. The assay lower limit of quantitation (LLOQ) was 0.50 ng/mL, and the method was validated over the concentration range of 0.50 to 1000 ng/mL.
The mean and percent coefficients of variation (% CV) were calculated for the plasma concentrations of compound of Formula Ia at each time point. Concentration values less than the assay LLOQ were reported as and set to zero in the calculations and tables. The plasma concentration-time data for compound of Formula Ia were subjected to pharmacokinetic analysis by noncompartmental methods using WinNonlin software. Nominal sampling times were used for pharmacokinetic analysis.
For each subject, the following compound of Formula Ia pharmacokinetic parameters were determined: • Cmax Maximum observed plasma concentration • Tmax Time of maximum observed plasma concentration • tf Time of final quantifiable sample • AUC(tf) Area under the plasma concentration-time curve from time 0 to tf • AUC(I) Area under the plasma concentration-time curve from time 0 to infinity [AUC(I)=AUC(tf)+C(tf)estimated/k, where k and C(tf)estimated are terminal elimination rate constant and estimated concentration at final quantifiable sample, respectively] • t½ Terminal-phase half-life (t½=In2/k) • CL/F Apparent total body clearance (CL/F=Dose/AUC[I]) • Vd/F Apparent volume of distribution (Vd/F=CL/F*(t1/2/0.693))
Dose-adjusted (to 50 mg) Cmax, AUC(I), and AUC(tf) values were also calculated. Cmax, Tmax, and tf were the observed values. The terminal phase rate constant (k) was calculated as the negative of the slope of the log-linear terminal portion of the plasma concentration-time curve using linear regression (at least three time points). The number of points needed to determine the terminal phase rate constant was selected by WinNonlin software.
Summary statistics, including means, standard deviations, and coefficients of variation (CV) expressed as a percent, were computed for the single-dose plasma compound of Formula Ia concentration data at each sampling time point and for the derived pharmacokinetic parameters for each dose level using a standard program based on SAS/STAT (Release 6.12; SAS Institute Inc., North Carolina).
The log-transformed dose-adjusted (to 50 mg) Cmax and AUC values of compound of Formula Ia were statistically analyzed using an analysis of variance (ANOVA) model. The effect due to treatment (dose) was extracted. Ninety-five percent confidence intervals (CIs) for the means at each dose level, based on the nontransformed data, were provided. […]

[3] = single oral 600 mg, fasted healthy adults, mean, n=6

CC(C)(C)NC(=O)N[C@H](C(=O)N1C[C@H]2[C@@H]([C@H]1C(=O)NC(CC1CCC1)C(=O)C(N)=O)C2(C)C)C(C)(C)C (mixture of isomers) [Formula Ia, (1R,5S)-N-[3-Amino-1-(Cyclobutylmethyl)-2,3-Dioxopropyl]-3-[2(S)-[[[(1,1-Dimethylethyl)Amino]Carbonyl]Amino]-3,3-Dimethyl-1-Oxobutyl]-6,6-Dimethyl-3-Azabicyclo[3.1.0]Hexan-2(S)-Carboxamide]
time until effects become evident [1]: one
DN AUC(I) ([2]; single oral 50 mg, mean, n=6): 181 ng·h/mL
DN AUC(I) ([2]; single oral 100 mg, mean, n=6): 172 ng·h/mL
DN AUC(I) ([2]; single oral 200 mg, mean, n=6): 212 ng·h/mL
DN AUC(I) ([2]; single oral 400 mg, mean, n=6): 195 ng·h/mL
DN AUC(I) ([2]; single oral 600 mg, mean, n=6): 180 ng·h/mL
DN AUC(I) ([2]; single oral 800 mg, mean, n=6): 145 ng·h/mL
AUC(I) ([2]; single oral 50 mg, fasted healthy adults, mean, n=6): 181 ng·h/mL
Tmax ([2]; single oral 50 mg, fasted healthy adults, n=6): 1.50 h
Cmax ([2]; single oral 400 mg, fasted healthy adults, mean, n=6): 445 ng/mL
Tmax ([2]; single oral 400 mg, fasted healthy adults, n=6): 1.75 h
AUC(I) [2, 3]: 2158 ng·h/mL
t½ [2, 3]: 10.2 h
Tmax ([2]; single oral 600 mg, fasted healthy adults, n=6): 2.25 h
AUC(I) ([2]; single oral 800 mg, fasted healthy adults, mean, n=6): 2320 ng·h/mL
dose dependence of Cmax and AUC ([2]; single oral doses 50-800 mg): increased in a dose-related manner up to the 600 mg dose
